According to US20050069883A1 (priority 2001, published 2005):
Bridge positions count the residues as written; N and C are the ends. Ends that are not written are not given here.

Assays:
MCH-1R(Δ316/EGFP) = assay: Functional activation, aequorin assay (mobilization of intracellular calcium); format: cell-based, human; conditions: FIG. 6; transiently transfected HEK293-AEQ17 cells, aequorin bioluminescence
Procedure: Functional activation of MCH-1R […] was measured in an aequorin assay. Proteins were introduced in the stable reporter cell line HEK293-AEQ17 in which mobilization of intracellular calcium can be detected by bioluminescence of jelly fish aequorin upon calcium binding.
Bioluminescence was detected using a Luminoskan RT luminometer (Labsystems Inc., Gaithersburg, Md.). HEK293-AEQ17 cells were maintained in D-MEM/high glucose medium (Life Technologies, Rockville, Md.) supplemented with 10% fetal bovine serum, […] G418, 25 mM Hepes at 37° C. with 5% CO2 in a humidified atmosphere. […]
The cells were harvested, washed once in ECB medium and resuspended to 500,000 cells/ml. […] of cell suspension (corresponding to 5×10^4 cells) was then injected into a 96-well test plate, and the integrated light emission was recorded over 30 seconds, in 0.5 second units. 20 μL of lysis buffer (0.1% final Triton X-100 concentration) was then injected and the integrated light emission recorded over 10 seconds, in 0.5 second units. The “fractional response” values for each well were calculated by taking the ratio of the integrated response to the initial challenge to the total integrated luminescence including the Triton X-100 lysis response.

[1] = target: human melanin-concentrating hormone receptor (MCH-1R) (human) (UniProt Q99705); assay: scintillation proximity assay, HEK293-AEQ17/MCH-1R membranes; non-specific binding defined with 500 nM unlabeled MCH
Chain of human melanin-concentrating hormone receptor (MCH-1R) (human) (Q99705 whole entry): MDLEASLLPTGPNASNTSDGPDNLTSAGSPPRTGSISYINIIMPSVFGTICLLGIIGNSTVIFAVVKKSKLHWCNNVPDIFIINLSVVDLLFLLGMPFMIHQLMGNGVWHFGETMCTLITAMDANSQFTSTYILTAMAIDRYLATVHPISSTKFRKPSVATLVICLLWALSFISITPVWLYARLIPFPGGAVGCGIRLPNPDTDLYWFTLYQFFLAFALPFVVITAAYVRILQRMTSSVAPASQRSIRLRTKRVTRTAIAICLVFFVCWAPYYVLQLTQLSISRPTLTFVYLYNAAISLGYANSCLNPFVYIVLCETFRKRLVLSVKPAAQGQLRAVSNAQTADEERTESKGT

Substance | functional activation of MCH-1R(Δ316/EGFP) (mobilization of intracellular calcium) (MCH-1R(Δ316/EGFP)) | specific binding window [1]
Melanin-concentrating hormone (DFDMLRCMLGRVYRPCWQV; disulfide 7-16 (inferred); ends not checked) [MCH, cyclic 19-amino acid neuropeptide, MCH-1R agonist] | lack of functional activation | 
[125I]Phe13Tyr19-MCH (from UniProt P20382 147-165) (peptide) |  | > 6 x (fold)
